Data reported in PMC11016868 (Computational and Structural Biotechnology Journal, 2024).
≈ marks a conversion by molar mass, not a printed value.

System: M. marinum (NTUH-M6885)
Assay: Minimum inhibitory concentration, broth microdilution
Assay type: cell-based
Conditions: Mycobacterium marinum, 7H9 broth, 28 °C

MIC | SMILES
2 µg/mL (≈ 2.43 µM) | CO[C@H]1/C=C/O[C@@]2(C)Oc3c(C)c(O)c4c(O)c(c(/C=N/N5CCN(C)CC5)c(O)c4c3C2=O)NC(=O)/C(C)=C\C=C\[C@H](C)[C@H](O)[C@@H](C)[C@@H](O)[C@@H](C)[C@H](OC(C)=O)[C@@H]1C [rifampicin]
8 µg/mL (≈ 24.1 µM) | O=C(O)c1cn(C2CC2)c2cc(N3CCNCC3)c(F)cc2c1=O [ciprofloxacin]
